Assay [1] concerns the target CDC42/Intersectin-1 (Homo sapiens) (UniProt P60953+Q15811). Put plainly: Inhibition of GST-tagged human intersectin-1 RhoGEF (1227 to 1571 residues) expressed in mouse NIH/3T3 cells assessed as reduction in human full length Cdc42 (1 to 191 residues) interaction with intersectin-1 RhoGEF at 50 to 200 uM incubated for 1 hr by Western blot analysis based pull-down assay. The class given is cell-based.

Assay [2] has as its system MCF7. Put plainly: Inhibition of RhoGEF in human MCF7 cells derived mammospheres assessed as inhibition of 10% calf serum-induced RhoA-GTP formation by measuring relative RhoA-GTP level at 5 uM incubated for 24 hrs by densitometry (reference value: 1). The class given is cell-based.
Assay [3] is filed under the species Mus musculus. The assay is described as follows: Inhibition of RhoGEF-mediated Rac1 signaling in mouse NIH/3T3 cells assessed as reduction in PDGF-stimulated Rac1-mediated lamellipodia formation at 10 to 30 uM. The class given is cell-based.
The test system of assay [4] is MCF7. The assay is described as follows: Inhibition of RhoGEF in human MCF7 cells derived mammospheres assessed as inhibition of 10% calf serum-induced RhoA-GTP formation by measuring relative RhoA-GTP level at 2.5 uM in presence of 2.5 uM Rhosin/G04 incubated for 24 hrs by densitometry (reference value: 1). The class given is cell-based.
The species entered for assay [5] is Mus musculus. The assay is described as follows: Inhibition of RhoGEF in mouse NIH/3T3 cells assessed as inhibition of 10% calf serum-induced Rac1-GTP formation by measuring relative Rac1-GTP level at 50 uM in presence of 50 uM Rhosin/G04 incubated for 24 hrs by densitometry (reference value: 1). The class given is cell-based.
The species entered for assay [6] is Mus musculus. Put plainly: Inhibition of RhoGEF in mouse NIH/3T3 cells assessed as inhibition of 10% calf serum-induced Cdc42-GTP formation by measuring Cdc42-GTP level at 10 uM incubated for 24 hrs by densitometry relative to control (reference value: 3.25). The class given is cell-based.
Assay [7] deals with T1, RhoGEF 1/Transforming protein RhoA (Homo sapiens) (UniProt P61586+Q92888). Put plainly: Binding affinity to human LARG (765 to 1138 residues) DH-PH module expressed in mouse NIH/3T3 cells assessed as reduction in LARG binding to human full length RhoA (1 to 193 residues) by measuring relative LARG binding level at 2.5 uM in presence of 2.5 uM Rhosin/G04 pull-down assay (reference value: 1 No unit). The class given is cell-based.

Assay [8] has as its target Rho GEF 11/Transforming protein RhoA (Homo sapiens) (UniProt P61586+O15085). Put plainly: Inhibition of FLAG-tagged human PDZ RhoGEF DH-PH module expressed in mouse NIH/3T3 cells assessed as reduction in human full length RhoA (1 to 193 residues) interaction with PDZ RhoGEF at 30 to 50 uM incubated for 1 hr by Western blot analysis based GST-RhoA pull-down assay. The class given is cell-based. A general note: A western blot detects proteins with antibodies after separation by electrophoresis.

For assay [9], the target named is Intersectin-1 (Homo sapiens) (UniProt Q15811). The assay is described as follows: Binding affinity to GST-tagged human intersectin-1 RhoGEF at 1 to 100000 nM by microscale thermophoresis analysis.
Chain of Intersectin-1 (Homo sapiens) (Q15811 whole entry): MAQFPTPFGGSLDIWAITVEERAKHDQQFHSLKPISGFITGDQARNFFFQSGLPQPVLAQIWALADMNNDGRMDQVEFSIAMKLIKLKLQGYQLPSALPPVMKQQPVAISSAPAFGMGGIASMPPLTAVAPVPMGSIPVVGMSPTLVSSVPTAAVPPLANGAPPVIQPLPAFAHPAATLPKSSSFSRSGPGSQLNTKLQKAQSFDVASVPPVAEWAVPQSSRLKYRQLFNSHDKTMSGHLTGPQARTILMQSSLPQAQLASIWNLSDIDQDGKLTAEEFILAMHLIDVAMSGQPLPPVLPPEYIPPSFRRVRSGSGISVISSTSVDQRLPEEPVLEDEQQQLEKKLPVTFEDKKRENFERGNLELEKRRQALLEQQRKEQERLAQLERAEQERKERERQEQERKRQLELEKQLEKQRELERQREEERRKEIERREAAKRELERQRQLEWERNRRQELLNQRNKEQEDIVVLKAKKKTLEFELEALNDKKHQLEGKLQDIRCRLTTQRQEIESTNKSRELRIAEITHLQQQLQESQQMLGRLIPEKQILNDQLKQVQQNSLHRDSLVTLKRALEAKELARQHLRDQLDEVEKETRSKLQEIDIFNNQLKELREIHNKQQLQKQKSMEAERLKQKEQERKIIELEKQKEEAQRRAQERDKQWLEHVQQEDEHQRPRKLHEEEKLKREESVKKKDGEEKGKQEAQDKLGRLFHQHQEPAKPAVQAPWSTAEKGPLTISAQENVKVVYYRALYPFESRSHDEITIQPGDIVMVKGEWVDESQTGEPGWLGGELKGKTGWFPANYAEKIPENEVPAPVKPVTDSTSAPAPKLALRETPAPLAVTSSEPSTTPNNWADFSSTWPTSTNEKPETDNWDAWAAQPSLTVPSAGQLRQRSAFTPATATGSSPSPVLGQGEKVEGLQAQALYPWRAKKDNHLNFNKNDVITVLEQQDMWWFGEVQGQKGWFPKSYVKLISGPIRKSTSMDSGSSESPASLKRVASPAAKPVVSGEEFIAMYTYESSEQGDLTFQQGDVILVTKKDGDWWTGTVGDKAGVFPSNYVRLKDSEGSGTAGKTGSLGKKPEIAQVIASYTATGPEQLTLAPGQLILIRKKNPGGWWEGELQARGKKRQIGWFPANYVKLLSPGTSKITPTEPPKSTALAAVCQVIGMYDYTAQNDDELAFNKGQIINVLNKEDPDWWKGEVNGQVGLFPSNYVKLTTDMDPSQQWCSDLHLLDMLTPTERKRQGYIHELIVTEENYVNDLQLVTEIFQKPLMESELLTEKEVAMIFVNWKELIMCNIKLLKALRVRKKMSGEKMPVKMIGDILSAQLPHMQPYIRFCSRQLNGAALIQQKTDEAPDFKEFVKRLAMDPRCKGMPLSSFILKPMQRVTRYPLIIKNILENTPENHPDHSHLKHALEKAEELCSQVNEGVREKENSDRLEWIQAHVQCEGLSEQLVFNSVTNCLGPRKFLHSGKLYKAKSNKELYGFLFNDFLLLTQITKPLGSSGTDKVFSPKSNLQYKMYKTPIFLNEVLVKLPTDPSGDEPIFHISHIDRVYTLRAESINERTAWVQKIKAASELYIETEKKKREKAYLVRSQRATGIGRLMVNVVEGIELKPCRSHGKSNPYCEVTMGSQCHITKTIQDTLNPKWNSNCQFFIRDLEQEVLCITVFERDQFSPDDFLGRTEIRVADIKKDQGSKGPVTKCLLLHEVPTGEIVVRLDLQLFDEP
Assay [10] is filed under the species Mus musculus. Put plainly: Inhibition of RhoGEF in mouse NIH/3T3 cells assessed as inhibition of 10% calf serum-induced RhoA-GTP formation by measuring relative RhoA-GTP level at 2.5 uM in presence of 2.5 uM Rhosin/G04 incubated for 24 hrs by densitometry (reference value: 1). The class given is cell-based.
For assay [11], the species on record is Mus musculus. The assay is described as follows: Inhibition of RhoGEF in mouse NIH/3T3 cells assessed as inhibition of 10% calf serum-induced RhoA-GTP formation incubated for 24 hrs by densitometry. The class given is cell-based.
Assay [12] is filed under the species Mus musculus. The assay is described as follows: Inhibition of RhoGEF-mediated RhoA signaling in mouse NIH/3T3 cells assessed as inhibition of serum -induced phospho-MLC formation at 10 to 30 uM incubated for 24 hrs by densitometry. The class given is cell-based.
For assay [13], the target named is Rho GTPase-activating protein 35/Transforming protein RhoA (Homo sapiens) (UniProt P61586+Q9NRY4). Put plainly: Inhibition of human p190 expressed in mouse NIH/3T3 cells assessed as reduction in human full length RhoA (1 to 193 residues) interaction with p190 at 50 to 100 uM incubated for 1 hr by Western blot analysis based His-RhoA pull-down assay. The class given is cell-based.

For assay [14], the system named is MCF7. Put plainly: Inhibition of RhoGEF in human MCF7 cells derived mammospheres assessed as inhibition of 10% calf serum-induced RhoA-GTP formation at 2.5 uM in presence of 2.5 uM Rhosin/G04 incubated for 24 hrs by densitometry relative to control. The class given is cell-based.
The target in assay [15] is Serine/threonine-protein kinase N1/Transforming protein RhoA (Homo sapiens) (UniProt Q16512+P61586). The assay is described as follows: Inhibition of human PKN1 expressed in mouse NIH/3T3 cells assessed as reduction in human full length RhoA (1 to 193 residues) interaction with PKN1 at 50 to 200 uM incubated for 1 hr by Western blot analysis based His-RhoA pull-down assay. The class given is cell-based.
Chain of Serine/threonine-protein kinase N1/Transforming protein RhoA (Homo sapiens) (P61586 whole entry, looked up, the tested form may be a part): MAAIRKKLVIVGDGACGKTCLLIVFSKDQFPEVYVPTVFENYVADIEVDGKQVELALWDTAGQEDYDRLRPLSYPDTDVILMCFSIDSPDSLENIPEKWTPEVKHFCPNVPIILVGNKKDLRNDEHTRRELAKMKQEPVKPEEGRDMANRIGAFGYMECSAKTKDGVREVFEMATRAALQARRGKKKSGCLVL
Chain of Serine/threonine-protein kinase N1/Transforming protein RhoA (Homo sapiens) (Q16512 whole entry, looked up, the tested form may be a part): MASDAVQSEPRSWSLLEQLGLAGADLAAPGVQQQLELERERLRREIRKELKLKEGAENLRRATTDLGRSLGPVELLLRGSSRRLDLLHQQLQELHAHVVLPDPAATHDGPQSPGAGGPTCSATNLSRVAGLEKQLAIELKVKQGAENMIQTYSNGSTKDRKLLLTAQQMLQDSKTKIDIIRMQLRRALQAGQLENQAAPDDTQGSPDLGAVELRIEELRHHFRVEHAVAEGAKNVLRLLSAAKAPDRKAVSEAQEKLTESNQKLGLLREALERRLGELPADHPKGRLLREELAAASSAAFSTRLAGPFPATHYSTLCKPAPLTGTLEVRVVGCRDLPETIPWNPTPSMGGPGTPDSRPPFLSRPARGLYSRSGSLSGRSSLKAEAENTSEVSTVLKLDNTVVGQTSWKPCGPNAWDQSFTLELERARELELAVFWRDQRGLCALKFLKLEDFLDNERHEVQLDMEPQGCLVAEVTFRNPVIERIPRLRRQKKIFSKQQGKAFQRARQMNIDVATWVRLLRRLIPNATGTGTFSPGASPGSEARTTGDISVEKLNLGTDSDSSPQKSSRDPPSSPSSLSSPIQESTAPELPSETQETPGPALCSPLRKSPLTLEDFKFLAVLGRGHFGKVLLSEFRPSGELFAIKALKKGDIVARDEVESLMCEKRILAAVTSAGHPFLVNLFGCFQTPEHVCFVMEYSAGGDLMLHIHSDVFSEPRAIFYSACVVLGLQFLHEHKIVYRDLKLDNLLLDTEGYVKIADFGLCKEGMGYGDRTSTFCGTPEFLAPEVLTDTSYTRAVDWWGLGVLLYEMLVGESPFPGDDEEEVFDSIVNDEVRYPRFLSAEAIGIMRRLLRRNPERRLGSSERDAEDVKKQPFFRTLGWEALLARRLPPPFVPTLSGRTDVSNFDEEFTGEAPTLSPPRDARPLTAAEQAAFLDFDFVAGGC

Assay [16] addresses A-kinase anchor protein 13/Transforming protein RhoA (Homo sapiens) (UniProt P61586+Q12802). The assay is described as follows: Inhibition of FLAG-tagged human LBC RhoGEF DH-PH module expressed in mouse NIH/3T3 cells assessed as reduction in human full length RhoA (1 to 193 residues) interaction with LBC RhoGEF at 10 to 50 uM incubated for 1 hr by Western blot analysis based His-RhoA pull-down assay. The class given is cell-based.

Assay [17] addresses Rho guanine nucleotide exchange factor 12 (Homo sapiens, UniProt Q9NZN5, V1099A). The assay is described as follows: Binding affinity to recombinant human LARG (765 to 1138 residues) V1099A mutant by microscale thermophoresis analysis. Background: Microscale thermophoresis detects binding through changes in fluorescence in a small temperature gradient.
The target of assay [18] is T1, RhoGEF 1/Transforming protein RhoA (Homo sapiens). Put plainly: Binding affinity to human LARG (765 to 1138 residues) DH-PH module expressed in mouse NIH/3T3 cells assessed as reduction in LARG binding to human full length RhoA (1 to 193 residues) by measuring relative LARG binding level at 15 uM in presence of 15 uM Rhosin/G04 pull-down assay (reference value: 1 No unit). The class given is cell-based.

Assay [19] concerns MCF7. The assay is described as follows: Inhibition of RhoGEF in human MCF7 cells derived mammospheres assessed as inhibition of 10% calf serum-induced RhoA-GTP formation by measuring relative RhoA-GTP level at 10 uM incubated for 24 hrs by densitometry (reference value: 1). The class given is cell-based.
Assay [20] deals with T1, RhoGEF 1/Transforming protein RhoA (Homo sapiens). The assay is described as follows: Binding affinity to human LARG (765 to 1138 residues) DH-PH module expressed in mouse NIH/3T3 cells assessed as reduction in LARG binding to human full length RhoA (1 to 193 residues) by measuring relative LARG binding level at 5 uM pull-down assay (reference value: 1 No unit). The class given is cell-based.

The target of assay [21] is Rho guanine nucleotide exchange factor 12 (Homo sapiens, UniProt Q9NZN5). Put plainly: Binding affinity to recombinant human LARG (765 to 1138 residues) containing DH-PH catalytic module by microscale thermophoresis analysis.
The species entered for assay [22] is Mus musculus. The assay is described as follows: Inhibition of RhoGEF in mouse NIH/3T3 cells assessed as inhibition of 10% calf serum-induced RhoA-GTP formation by measuring relative RhoA-GTP level at 50 uM incubated for 24 hrs by densitometry (reference value: 1). The class given is cell-based.
For assay [23], the system named is MCF7. The assay is described as follows: Inhibition of RhoGEF in human MCF7 cells derived mammospheres assessed as inhibition of RhoA-mediated phospho-MLC formation incubated for 24 hrs by densitometry. The class given is cell-based.

These results are taken from ChEMBL document CHEMBL4419173, “Small-molecule inhibitors targeting g-protein-coupled rho guanine nucleotide exchange factors” (2014).

The inhibition is how much of the control response was suppressed. The term Kd denotes a measure of binding affinity in units of concentration.

Calls of active or inactive are those of the source. The rule behind the calls is not given here.

Chain of Rho guanine nucleotide exchange factor 12 (Homo sapiens, UniProt Q9NZN5, V1099A) (Q9NZN5 2-1544 V1099A limits assumed): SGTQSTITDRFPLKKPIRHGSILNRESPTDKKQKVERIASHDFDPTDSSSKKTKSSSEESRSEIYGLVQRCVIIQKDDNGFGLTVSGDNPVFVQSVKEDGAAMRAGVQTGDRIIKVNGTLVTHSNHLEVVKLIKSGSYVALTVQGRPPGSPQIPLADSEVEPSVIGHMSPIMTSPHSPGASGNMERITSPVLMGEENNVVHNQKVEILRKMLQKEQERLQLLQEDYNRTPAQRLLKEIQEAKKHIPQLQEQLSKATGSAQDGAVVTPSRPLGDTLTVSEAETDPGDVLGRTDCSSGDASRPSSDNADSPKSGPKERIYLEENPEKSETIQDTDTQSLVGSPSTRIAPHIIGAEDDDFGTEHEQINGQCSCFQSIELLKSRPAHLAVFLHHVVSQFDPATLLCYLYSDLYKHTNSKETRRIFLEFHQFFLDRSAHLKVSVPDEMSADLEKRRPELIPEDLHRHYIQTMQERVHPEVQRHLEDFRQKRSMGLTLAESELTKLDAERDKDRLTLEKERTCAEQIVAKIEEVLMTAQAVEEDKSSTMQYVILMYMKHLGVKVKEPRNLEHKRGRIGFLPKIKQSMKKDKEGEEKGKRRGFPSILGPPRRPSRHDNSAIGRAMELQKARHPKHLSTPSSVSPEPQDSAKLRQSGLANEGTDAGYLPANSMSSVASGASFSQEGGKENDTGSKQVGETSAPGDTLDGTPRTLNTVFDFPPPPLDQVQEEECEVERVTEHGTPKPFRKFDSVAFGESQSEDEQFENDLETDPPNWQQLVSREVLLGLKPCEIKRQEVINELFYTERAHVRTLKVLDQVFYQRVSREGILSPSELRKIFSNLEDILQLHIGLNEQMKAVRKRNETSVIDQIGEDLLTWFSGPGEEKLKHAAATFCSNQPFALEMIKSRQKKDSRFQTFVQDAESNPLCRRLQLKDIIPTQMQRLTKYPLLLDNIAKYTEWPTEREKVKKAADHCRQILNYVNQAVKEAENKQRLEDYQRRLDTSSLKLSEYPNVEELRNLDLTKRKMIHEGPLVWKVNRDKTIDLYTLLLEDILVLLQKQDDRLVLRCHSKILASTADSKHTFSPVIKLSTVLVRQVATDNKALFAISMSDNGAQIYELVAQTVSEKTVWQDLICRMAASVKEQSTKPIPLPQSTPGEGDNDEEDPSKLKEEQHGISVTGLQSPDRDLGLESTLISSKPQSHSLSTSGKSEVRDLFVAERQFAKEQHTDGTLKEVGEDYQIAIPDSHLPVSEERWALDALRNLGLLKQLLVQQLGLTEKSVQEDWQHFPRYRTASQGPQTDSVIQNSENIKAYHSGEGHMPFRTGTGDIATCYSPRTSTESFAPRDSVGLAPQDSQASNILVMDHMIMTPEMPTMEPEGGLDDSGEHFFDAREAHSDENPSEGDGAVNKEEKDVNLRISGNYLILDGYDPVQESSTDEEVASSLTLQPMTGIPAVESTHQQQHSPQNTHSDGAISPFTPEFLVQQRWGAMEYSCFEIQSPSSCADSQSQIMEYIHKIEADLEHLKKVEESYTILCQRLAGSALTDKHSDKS
Chain of CDC42/Intersectin-1 (Homo sapiens) (P60953 whole entry, looked up, the tested form may be a part): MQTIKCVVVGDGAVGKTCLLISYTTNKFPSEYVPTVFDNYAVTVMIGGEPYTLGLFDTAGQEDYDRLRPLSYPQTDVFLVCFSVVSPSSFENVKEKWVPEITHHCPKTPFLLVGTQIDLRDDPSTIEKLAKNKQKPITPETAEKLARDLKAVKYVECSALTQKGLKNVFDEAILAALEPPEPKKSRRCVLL
Chain of CDC42/Intersectin-1 (Homo sapiens) (Q15811 whole entry, looked up, the tested form may be a part): as the sequence (Q15811 whole entry) above

On to `Cc1cccc(COc2cccc(/C=C3\C(=O)NN(c4ccccc4)C3=O)c2)c1`, for which the inhibition result (in assay [1]; in the assay listed under Mus musculus [3]; in assay [13]; in assay [15]; in assay [16]) was “inactive” each time. Besides, the fold change (FC) with MCF7 [2] turned out to be 0.77; with MCF7 [4] it was 0.27; in the assay filed under Mus musculus [5], 1.19; in the assay filed under Mus musculus [6], 2.23; in [7] it was 0.71; in the assay listed under Mus musculus [10], 1.26. In addition, the fold change (FC) in assay [18] turned out to be 0.03; in the assay with MCF7 [19], 0.4; in assay [20], 0.73; in the assay listed under Mus musculus [22], 0.26. Moreover, the inhibition entry (in assay [8]; in the assay filed under Mus musculus [12]) was “Active” each time. Besides, the result in assay [9] was inactive. Besides, the inhibition entry is “Dose-dependent effect” in the assay listed under Mus musculus [11], 70% in the assay on MCF7 [14] and “Dose-dependent effect” with MCF7 [23]. Moreover, the Kd in assay [17] was 79 nM; in assay [21], 65 to 76 nM.
